This is an account of results in ChEMBL document CHEMBL4177669 (Bioorg Med Chem Lett, 2017).

The nature of data set [1]: AUC in CD-1 mouse at 3 mg/kg, iv. Format: ADME, organism-based. To be noted: in vivo.
A short description of data set [2]: Half life in CD-1 mouse at 3 mg/kg, iv. Format: ADME, organism-based. To be noted: in vivo.
Data set [3] in a line: Drug metabolism in rat hepatocytes assessed as acyl glucoronidation at 10 […] after 30 to 120 mins by LC-MS analysis. Format: ADME, cell-based, Hepatocyte.
Data set [4] can be described thus: Clearance in CD-1 mouse at 3 mg/kg, iv. Format: ADME, organism-based. To be noted: in vivo.
Data set [5] in a line: Drug metabolism in human hepatocytes assessed as acyl glucoronidation at 10 […] after 30 to 120 mins by LC-MS analysis. Format: ADME, cell-based, Hepatocyte.
Data set [6] in a line: AUC in cynomolgus monkey at 3 mg/kg, iv. Format: ADME, organism-based, Macaca fascicularis. To be noted: in vivo.
Data set [7] is described as follows: Half life in CD-1 mouse at 1 mg/kg, iv. Format: ADME, organism-based. To be noted: in vivo.
Data set [8] can be described thus: Volume of distribution at steady state in cynomolgus monkey at 3 mg/kg, iv. The settings on record: in vivo, read-out: Vdss. Format: ADME, organism-based, Macaca fascicularis.
Data set [9] can be described thus: AUC in CD-1 mouse at 1 mg/kg, iv. Format: ADME, organism-based. To be noted: in vivo.
A short description of data set [10]: Cmax in CD-1 mouse at 10 mg/kg, po. Format: ADME, organism-based. More on the design: dose 10 mg/kg, route oral. The settings on record: in vivo.
Data set [11] can be described thus: Clearance in CD-1 mouse at 1 mg/kg, iv. Format: ADME, organism-based. To be noted: in vivo.
Data set [12] is described as follows: Half life in cynomolgus monkey at 3 mg/kg, iv. To be noted: in vivo. Format: ADME, organism-based, Macaca fascicularis.
A short description of data set [13]: Half life in Wistar rat at 3 mg/kg, iv. Format: ADME, organism-based. The settings on record: in vivo.
Data set [14] in a line: Half life in cynomolgus monkey at 10 mg/kg, po. Format: ADME, organism-based, Macaca fascicularis. The settings on record: in vivo.
Data set [15] is described as follows: Clearance in Wistar rat at 3 mg/kg, iv. The settings on record: in vivo. Format: ADME, organism-based.
Data set [16] is described as follows: Clearance in cynomolgus monkey at 3 mg/kg, iv. Format: ADME, organism-based, Macaca fascicularis. To be noted: in vivo.
The nature of data set [17]: AUC in Wistar rat at 10 mg/kg, po. Format: ADME, organism-based. The settings on record: in vivo.
Data set [18] is described as follows: Volume of distribution at steady state in CD-1 mouse at 1 mg/kg, iv. Format: ADME, organism-based. The settings on record: in vivo, read-out: Vdss.
Data set [19] in a line: Half life in CD-1 mouse at 10 mg/kg, po. Format: ADME, organism-based. To be noted: in vivo.
Data set [20] can be described thus: Oral bioavailability in CD-1 mouse at 10 mg/kg. The settings on record: in vivo. Format: ADME, organism-based.
The nature of data set [21]: AUC in CD-1 mouse at 10 mg/kg, po. To be noted: in vivo. Format: ADME, organism-based.
Data set [22] is described as follows: AUC in Wistar rat at 3 mg/kg, iv. Format: ADME, organism-based. To be noted: in vivo.
A short description of data set [23]: Oral bioavailability in Wistar rat at 10 mg/kg. Format: ADME, organism-based. To be noted: in vivo.
Data set [24] is described as follows: Cmax in cynomolgus monkey at 10 mg/kg, po. To be noted: in vivo. Format: ADME, organism-based, Macaca fascicularis. More on the design: dose 10 mg/kg, route oral.
Data set [25] in a line: Thermodynamic solubility of the compound. To be noted: read-out: Therm_solubility. Format: physicochemical.
The nature of data set [26]: Half life in Wistar rat at 10 mg/kg, po. Format: ADME, organism-based. The settings on record: in vivo.
Data set [27] is described as follows: Cmax in Wistar rat at 10 mg/kg, po. Format: ADME, organism-based. More on the design: dose 10 mg/kg, route oral. To be noted: in vivo.
A short description of data set [28]: AUC in cynomolgus monkey at 10 mg/kg, po. Format: ADME, organism-based, Macaca fascicularis. To be noted: in vivo.
Data set [29] is described as follows: Volume of distribution at steady state in Wistar rat at 3 mg/kg, iv. Format: ADME, organism-based. The settings on record: in vivo, read-out: Vdss.
A short description of data set [30]: Oral bioavailability in cynomolgus monkey at 10 mg/kg. Format: ADME, organism-based, Macaca fascicularis. The settings on record: in vivo.
A short description of data set [31]: Drug metabolism in rat hepatocytes assessed as hydrolysis.
The nature of data set [32]: Drug metabolism in rat liver microsomes assessed as N-dealkylation. Format: ADME, microsome.
A short description of data set [33]: Drug metabolism in rat hepatocytes assessed as oxidation.

≈ marks a conversion by molar mass, not a printed value.

Turning to `CC(CCOc1ccccc1CN(C)C(=O)c1ccc(-c2ccco2)cc1)CCC(=O)O` (stereo not drawn), the AUC in [1] was found to be 11800 ng·h/mL. The half-life in data set [2] is 1.7 h. Further, the Drug metabolism result in [3] and in [5] was “Metabolite_Detected” in each case. This molecule also registered a clearance in data set [4] of 4 mL/min/kg.
On to `C/C(=C\COc1ccccc1CN(C)C(=O)c1ccc(-c2ccco2)cc1)CCC(=O)O`, for which the exposure (AUC) came out at 6200 ng·h/mL in [6]; 3300 ng·h/mL in data set [1]; 1980 ng·h/mL in data set [9]; 12500 ng·h/mL in [17]; 16600 ng·h/mL in data set [21]; 4650 ng·h/mL in data set [22]. The same molecule showed an AUC in data set [28] of 6050 ng·h/mL. Further, the half-life is 5.8 h in data set [7]; 1.8 h in [12]; 4.5 h in data set [13]; 1.1 h in data set [14]; 2.3 h in data set [2]; 4.3 h in [19]. The molecule further gave a half-life in data set [26] of 2.5 h. Moreover, the Vd in data set [8] is 1.3 L/kg; in [18], 2.6 L/kg; in data set [29], 0.9 L/kg. Also, the Cmax came out at 11100 ng/mL in data set [10], 4190 ng/mL in [24] and 3800 ng/mL in [27]. Further, the clearance turned out to be 8.4 mL/min/kg in data set [11], 7.2 mL/min/kg in data set [15], 8 mL/min/kg in [16] and 15 mL/min/kg in data set [4]. Moreover, the bioavailability stood at 84% in data set [20], 82% in data set [23] and 29% in data set [30]. The Drug metabolism result in [3] and in data set [5] was “Metabolite_Detected” throughout. Besides, in data set [25], the solubility thermodynamic stood at 190 µM (≈ 82.4 µg/mL).
Molecule `CC(CCCCOc1ccccc1CN(C)C(=O)c1ccc(-c2ccco2)cc1)C(=O)O` (stereo not drawn) displayed an AUC in data set [1] of 11400 ng·h/mL. The half-life in data set [2] is 2.8 h. For the same molecule, the Drug metabolism result in data set [3] and in [5] was “Metabolite_Detected” throughout. This molecule had a clearance in data set [4] of 3 mL/min/kg.
In data set [1], `C[C@H](CCCOc1ccccc1CN(C)C(=O)c1ccc(-c2ccco2)cc1)CC(=O)O` returned an AUC of 77700 ng·h/mL. The same molecule showed a half-life in data set [2] of 3.9 h. Besides, the Drug metabolism result in [3] and in data set [5] was “Metabolite_Detected” throughout. The molecule further returned a clearance in data set [4] of 0.3 mL/min/kg.
`CN(Cc1ccccc1OCCCCCC(=O)O)C(=O)c1ccc(-c2ccco2)cc1` returned an AUC in data set [1] of 1100 ng·h/mL. The molecule further showed a half-life in data set [2] of 1.7 h. Besides, the Drug metabolism entry in data set [3] and in data set [5] was “Metabolite_Detected” throughout. Also, the clearance in [4] turned out to be 44 mL/min/kg.
`C[C@@H](CCCOc1ccccc1CN(C)C(=O)c1ccc(-c2ccco2)cc1)CC(=O)O` came in with an AUC in data set [1] of 30800 ng·h/mL. The half-life in data set [2] is 2 h. Also, the Drug metabolism result in data set [3] and in data set [5] was “Metabolite_Detected” in each case. For the same molecule, the clearance in data set [4] came out at 1.3 mL/min/kg.
Take `CN(Cc1ccccc1OCCCCC(C)(C)C(=O)O)C(=O)c1ccc(-c2ccco2)cc1`: the area under the curve (AUC) in data set [1] worked out at 48400 ng·h/mL. The molecule also had a half-life in data set [2] of 4.6 h. Besides, the Drug metabolism result in data set [3] and in data set [5] was “Metabolite_Detected” in each case. Moreover, the clearance in data set [4] came to 1.3 mL/min/kg.
As for `CN(Cc1ccccc1OCCC/C=C/C(=O)O)C(=O)c1ccc(-c2ccco2)cc1`, the exposure (AUC) in data set [1] was determined as 750 ng·h/mL. In addition, the half-life in [2] was 1.9 h. Besides, the Drug metabolism result in data set [3] and in [5] was “Metabolite_Detected” in each case. This molecule returned a clearance in [4] of 67 mL/min/kg.
Turning to `C/C(=C\CCCOc1ccccc1CN(C)C(=O)c1ccc(-c2ccco2)cc1)C(=O)O`, the AUC in data set [1] is 1300 ng·h/mL. In [2], this molecule gave a half-life of 1.2 h. Also, the Drug metabolism entry in data set [3] and in [5] was “Metabolite_Detected” each time. The clearance in [4] is 4 mL/min/kg.
`C/C(=C\C(=O)O)CCCOc1ccccc1CN(C)C(=O)c1ccc(-c2ccco2)cc1` had an AUC in data set [1] of 4700 ng·h/mL. This molecule also gave a half-life in data set [2] of 1.6 h. For the same molecule, the Drug metabolism entry in data set [3] and in data set [5] was “Metabolite_Detected” throughout. The molecule further yielded a clearance in data set [4] of 11 mL/min/kg.
With `O=C(O)CCCCCOc1ccccc1CN(C(=O)c1ccc(-c2ccco2)cc1)C1CC1`, the Drug metabolism entry in [31], in [32] and in data set [33] was “Metabolite_Detected” in each case.
In turn, `CN(Cc1ccccc1OCCC[C@@H]1C[C@@H]1C(=O)O)C(=O)c1ccc(-c2ccco2)cc1` (racemic) had an AUC in [1] of 30100 ng·h/mL. The molecule further showed a half-life in data set [2] of 2.7 h. In addition, the Drug metabolism entry in [3] and in data set [5] was “Metabolite_Detected” throughout. Moreover, the clearance in data set [4] stood at 1.7 mL/min/kg.
Molecule `CN(Cc1ccccc1OCCC[C@@H]1C[C@H]1C(=O)O)C(=O)c1ccc(-c2ccco2)cc1` (racemic) had an AUC in [1] of 40500 ng·h/mL. In data set [2], the half-life was 3.5 h. Also, the Drug metabolism result in data set [3] and in data set [5] was “Metabolite_Detected” in each case. This molecule also showed a clearance in data set [4] of 0.6 mL/min/kg.
